Source: PMC11754080 (iScience, 2024)

How the values were obtained:
Test in all cases: microscale thermophoresis
Type in all cases: binding
septin6 = target: T1, septin6 (Homo sapiens, UniProt Q14141)
T1 sequence (Q14141 2-434): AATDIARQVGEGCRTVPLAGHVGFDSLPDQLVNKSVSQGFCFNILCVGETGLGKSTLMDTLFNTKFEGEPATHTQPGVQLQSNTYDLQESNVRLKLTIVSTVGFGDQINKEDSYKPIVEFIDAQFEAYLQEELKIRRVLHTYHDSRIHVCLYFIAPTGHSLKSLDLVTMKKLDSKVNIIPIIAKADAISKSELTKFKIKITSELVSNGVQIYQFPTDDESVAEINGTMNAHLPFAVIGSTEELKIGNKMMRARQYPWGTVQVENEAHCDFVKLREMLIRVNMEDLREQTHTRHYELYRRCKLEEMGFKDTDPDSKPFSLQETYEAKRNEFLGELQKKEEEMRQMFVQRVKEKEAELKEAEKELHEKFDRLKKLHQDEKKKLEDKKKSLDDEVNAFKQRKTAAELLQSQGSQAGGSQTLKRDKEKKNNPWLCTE

septin2 = target: T2, septin2 (Homo sapiens, UniProt Q15019)
T2 sequence (Q15019 1-361): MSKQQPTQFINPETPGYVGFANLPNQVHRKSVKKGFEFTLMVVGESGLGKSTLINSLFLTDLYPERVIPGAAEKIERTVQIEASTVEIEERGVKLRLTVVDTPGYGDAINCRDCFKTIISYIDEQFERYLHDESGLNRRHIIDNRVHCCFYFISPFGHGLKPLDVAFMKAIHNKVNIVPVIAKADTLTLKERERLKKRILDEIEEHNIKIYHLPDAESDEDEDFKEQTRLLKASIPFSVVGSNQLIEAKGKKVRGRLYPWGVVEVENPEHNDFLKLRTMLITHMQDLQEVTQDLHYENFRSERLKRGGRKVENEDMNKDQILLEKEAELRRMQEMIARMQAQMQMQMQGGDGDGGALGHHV

septin7 = target: T3, septin7 (Homo sapiens, UniProt Q16181)
T3 sequence (Q16181 2-437): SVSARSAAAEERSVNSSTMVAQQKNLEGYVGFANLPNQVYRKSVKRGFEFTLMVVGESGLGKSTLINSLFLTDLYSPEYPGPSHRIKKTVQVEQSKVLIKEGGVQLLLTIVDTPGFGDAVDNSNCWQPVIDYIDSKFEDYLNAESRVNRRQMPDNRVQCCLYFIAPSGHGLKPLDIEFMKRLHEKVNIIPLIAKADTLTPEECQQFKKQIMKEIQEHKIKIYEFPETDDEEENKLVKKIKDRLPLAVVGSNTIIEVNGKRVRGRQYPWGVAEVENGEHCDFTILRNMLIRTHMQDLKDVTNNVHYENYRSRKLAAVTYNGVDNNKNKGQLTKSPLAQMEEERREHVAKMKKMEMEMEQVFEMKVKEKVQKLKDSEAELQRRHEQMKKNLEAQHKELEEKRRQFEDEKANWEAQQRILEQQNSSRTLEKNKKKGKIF

Structure (SMILES): OC1(c2ccc(Cl)c(C(F)(F)F)c2)CCN(CCCC(c2ccc(F)cc2)c2ccc(F)cc2)CC1 [PFD, penfluridol]
- Kd (septin6): 43.1 µM
- Kd (septin2): 54.8 µM
- Kd (septin7): 980 nM
